Measurements from patent US8962628B2, “Herbicidal 5H-quinoxaline-6-one derivatives detailed description” (Syngenta Limited, priority 2010, dated 2015).

What was measured:
Assay type in all cases: in vivo
[1] = tested on: Amaranthus retroflexus; experiment: Herbicidal action post-emergence (Example B1); settings: post-emergence spray, rate 1000 g/ha, evaluated after 13 days; 10=total damage to plant, 0=no damage to plant
Description: (§1) Seeds of a variety of test species were sown in standard soil in pots. After 8 days cultivation (post-emergence) under controlled conditions in a glasshouse (at 24/16° C., day/night; 14 hours light; 65% humidity), the plants were sprayed with an aqueous spray solution derived from the formulation of the technical active ingredient in acetone/water (50:50) solution containing 0.5% Tween 20 (polyoxyethelyene sorbitan monolaurate, CAS RN 9005-64-5). The test plants were then grown under controlled conditions in a glasshouse (at 24/16° C., day/night; 14 hours light; 65% humidity) and watered twice daily. After 13 days, the test was evaluated (10=total damage to plant; 0=no damage to plant).

[2] = tested on: Echinochloa crus-galli; experiment: Herbicidal action post-emergence (Example B1); settings: post-emergence spray, rate 1000 g/ha, evaluated after 13 days; 10=total damage to plant, 0=no damage to plant
Description: as §1

[3] = tested on: Solanum nigrum; experiment: Herbicidal action post-emergence (Example B1); settings: post-emergence spray, rate 1000 g/ha, evaluated after 13 days; 10=total damage to plant, 0=no damage to plant
Description: as §1

[4] = tested on: Ipomea hederaceae; experiment: Herbicidal action post-emergence (Example B1); settings: post-emergence spray, rate 1000 g/ha, evaluated after 13 days; 10=total damage to plant, 0=no damage to plant
Description: as §1

[5] = tested on: Setaria faberi; experiment: Herbicidal action post-emergence (Example B1); settings: post-emergence spray, rate 1000 g/ha, evaluated after 13 days; 10=total damage to plant, 0=no damage to plant
Description: as §1

[6] = tested on: Amaranthus retroflexus; experiment: Herbicidal action post-emergence (Example B2); settings: post-emergence spray with adjuvant X-77, rate 500 g/ha, evaluated after 15 days; 10=total damage to plant, 0=no damage to plant
Description: (§2) Seeds of crop and representative weed species were sown in standard soil in pots. After cultivation for 14 days under controlled conditions in a glasshouse (at 22/16° C., day/night; 16 hours light; 65% humidity), the plants were sprayed. The spray solution was prepared by dissolving the technical active ingredient in acetone containing 10.56 wt % Emulsogen EL, 42.22 wt % N-methylpyrrolidone and 2.22 wt % DPG-monoethyl ether to give a 5% stock solution. This was then diluted with water containing 0.2% (v/v) of the adjuvant X-77 to give the desired treatment concentration.
(§3) The test plants were then grown on under controlled conditions in a glasshouse (at 22/16° C., day/night; 16 hours light; 65% humidity) and watered twice daily. After 15 days the test was evaluated (10=total damage to plant; 0=no damage to plant).

[7] = tested on: Echinochloa crus-galli; experiment: Herbicidal action post-emergence (Example B2); settings: post-emergence spray with adjuvant X-77, rate 500 g/ha, evaluated after 15 days; 10=total damage to plant, 0=no damage to plant
Description: as §2, §3

[8] = tested on: Ipomea hederaceae; experiment: Herbicidal action post-emergence (Example B2); settings: post-emergence spray with adjuvant X-77, rate 500 g/ha, evaluated after 15 days; 10=total damage to plant, 0=no damage to plant
Description: as §2, §3

[9] = tested on: Setaria faberi; experiment: Herbicidal action post-emergence (Example B2); settings: post-emergence spray with adjuvant X-77, rate 500 g/ha, evaluated after 15 days; 10=total damage to plant, 0=no damage to plant
Description: as §2, §3

Compound	AMARE damage to plant (score 0-10) [1]	ECHCG damage to plant (score 0-10) [2]	SOLNI damage to plant (score 0-10) [3]	IPOHE damage to plant (score 0-10) [4]	SETFA damage to plant (score 0-10) [5]	AMARE damage to plant (score 0-10) [6]	ECHCG damage to plant (score 0-10) [7]	IPOHE damage to plant (score 0-10) [8]	SETFA damage to plant (score 0-10) [9]
CC1(C)C(=O)C(c2ccccc2C(F)(F)F)C(=O)c2nccnc21 (stereo not shown) [Compound E1, 8,8-dimethyl-6-(2-trifluoromethyl-phenyl)-8H-quinoxaline-5,7-dione]	10	9	10	9	9	10	3	8	7
CC(C)C(=O)OC1=C(c2ccccc2C(F)(F)F)C(=O)C(C)(C)c2nccnc21 [Compound F1, isobutyric acid 8,8-dimethyl-7-oxo-6-(2-trifluoromethyl-phenyl)-7,8-dihydro-quinoxalin-5-yl ester]						10	8	8	8
